Experimental data published in patent US8415342B2, “Besifloxacin ophthalmic composition for the treatment or control of infection” (Bausch & Lomb Incorporated, priority 2008, dated 2013).
≈ marks a conversion by molar mass, not a printed value. Read-outs that look alike come from different tables or passages of the source.

Assays:
Assay type in all cases: cell-based
Streptococcus mitis = assay: MIC of clinical trial isolates, Studies 373, 433, 434; settings: Streptococcus mitis (listed separately from S. mitis group), N 20
Method: PFGE testing was performed per standard procedures. […] Analysis Populations

[1] = test system: baseline pathogens of bacterial conjunctivitis patients; assay: MIC of baseline clinical trial isolates, Studies 373, 433, 434 (all species)
S. aureus [2] = assay: MIC of clinical trial isolates, Studies 373, 433, 434; settings: Staphylococcus aureus
[3] = test system: Corynebacterium pseudodiphtheriticum; assay: as above; settings: N 8
S. epidermidis [4] = assay: as above; settings: Staphylococcus epidermidis
Streptococcus salivarius = assay: as above; settings: N 9
Streptococcus oralis = assay: as above; settings: N 18
Method: (§1) PFGE testing was performed per standard procedures.
(§2) The antibacterial susceptibility profile of each Visit 1 bacterial isolate was determined for besifloxacin and other antimicrobials.

S. pneumoniae [5] = assay: as above; settings: Streptococcus pneumoniae, all phenotypes, N 302
Method: as §1, §2

S. mitis group = assay: as above; settings: Streptococcus mitis group, N 45
Method: as §1, §2

CDC coryneform group G = assay: as above; settings: N 29
Method: as §1, §2

H. influenzae [6] = assay: as above; settings: Haemophilus influenzae, all phenotypes, N 344
Method: as §1, §2

Staphylococcus hominis [7] = assay: as above; settings: N 9
[8] = test system: Staphylococcus lugdunensis; assay: as above; settings: N 8
Corynebacterium striatum = assay: as above; settings: N 8
[9] = test system: E. coli topoisomerase mutants; assay: MIC against defined topoisomerase mutants; settings: Escherichia coli
Method: Furthermore, an experiment was conducted to assess the mechanism of action of besifloxacin in S. pneumoniae, S. aureus, and E. coli via step selections for isolates with decreased susceptibility to besifloxacin, as well as by testing for altered susceptibilities of ciprofloxacin-resistant variants of all three species containing genetically defined mutations in the quinolone resistance determining regions (QRDRs) of structural genes encoding DNA gyrase and topoisomerase IV (Table 2).

Viridans streptococci = assay: MIC, CLSI broth microdilution, clinical isolates; settings: Viridans streptococci (N = 156)
Morganella morganii = assay: MIC, CLSI broth microdilution, clinical isolates; settings: Morganella morganii (N = 51)
Moraxella catarrhalis = assay: MIC, CLSI broth microdilution, clinical isolates; settings: Moraxella catarrhalis (N = 101)
Klebsiella oxytoca = assay: MIC, CLSI broth microdilution, clinical isolates; settings: Klebsiella oxytoca (N = 50)
Citrobacter koseri = assay: MIC, CLSI broth microdilution, clinical isolates; settings: Citrobacter koseri (N = 100)
S. pneumoniae [10] = assay: MIC and MBC:MIC ratio, recent ocular isolates; settings: S. pneumoniae (N = 35), recent ocular isolates
[11] = test system: S. pneumoniae topoisomerase mutants; assay: MIC against defined topoisomerase mutants; settings: Streptococcus pneumoniae
Staphylococcus warneri = assay: MIC, CLSI broth microdilution, clinical isolates; settings: Staphylococcus warneri (N = 50)
[12] = test system: Lancefield group C, F, G streptococci; assay: MIC, CLSI broth microdilution, clinical isolates; settings: G streptococci (N = 50)
S. epidermidis [13] = assay: MIC and MBC:MIC ratio, recent ocular isolates; settings: Staphylococcus epidermidis; S. epidermidis (N = 15), recent ocular isolates
Source text: (§3) The success of in vivo antimicrobial action depends to a large extent on the host's defense mechanisms, which ultimately sequester and kill the microorganisms that have been reduced by the bacteriostatic/bactericidal action of the antibacterial agent. Thus, it is also of interest to profile the bactericidal activity of antimicrobial agents. The assessment of in vitro bactericidal activity can be accomplished in multiple ways, for example, the time-kill method or the determination of the minimum bactericidal concentration (MBC). […] Bactericidal agents are characterized by low MBC:MIC ratios.

H. influenzae [14] = assay: MIC and MBC:MIC ratio, recent ocular isolates; settings: H. influenzae (N = 40), recent ocular isolates
Source text: as §3

[15] = test system: S. aureus topoisomerase mutants; assay: MIC against defined topoisomerase mutants; settings: Staphylococcus aureus
Staphylococcus hominis [16] = assay: MIC, CLSI broth microdilution, clinical isolates; settings: Staphylococcus hominis (N = 50)
S. aureus [17] = assay: MIC and MBC:MIC ratio, recent ocular isolates; settings: Staphylococcus aureus; S. aureus (N = 30), recent ocular isolates
Legionella pneumophila = assay: microbe, parasite or virus in culture; settings: Legionella pneumophila
[18] = test system: Staphylococcus haemolyticus; assay: MIC, CLSI broth microdilution, clinical isolates; settings: Staphylococcus haemolyticus (N = 101)

With CC[C@H]1OC(=O)[C@H](C)[C@@H](O[C@H]2C[C@@](C)(OC)[C@@H](O)[C@H](C)O2)[C@H](C)[C@@H](O[C@@H]2O[C@H](C)C[C@H](N(C)C)[C@H]2O)[C@](C)(O)C[C@@H](C)CN(C)[C@H](C)[C@@H](O)[C@]1(C)O [AZITH] the MIC50 (Streptococcus mitis) was 2 µg/mL, the MIC90 (Streptococcus mitis) was 4 µg/mL and the “MIC Range” value (Streptococcus mitis) was 0.06 to 8 µg/mL. The MIC50 ([1]; All organisms, N 1324) was 2 µg/mL, the MIC90 ([1]; All organisms, N 1324) was over 8 µg/mL and the MIC50 ([1]; Gram-negative, N 438) was 2 µg/mL. The MIC90 ([1]; Gram-negative, N 438) was over 8 µg/mL, the MIC50 ([1]; Gram-positive, N 886) was 1 µg/mL and the MIC90 ([1]; Gram-positive, N 886) was over 8 µg/mL. For the same compound, the MIC50 (S. aureus [2]; all phenotypes, N 190) was 2 µg/mL, the MIC90 (S. aureus [2]; all phenotypes, N 190) was over 8 µg/mL and the MIC50 [3] was over 8 µg/mL. For the same compound, the MIC50 (S. epidermidis [4]; all phenotypes, N 111) was 1 µg/mL, the MIC90 (S. epidermidis [4]; all phenotypes, N 111) was over 8 µg/mL and the MIC50 (Streptococcus salivarius) was 8 µg/mL. The MIC50 (Streptococcus oralis) was 4 µg/mL, the MIC90 (Streptococcus oralis) was over 8 µg/mL and the MIC90 (S. pneumoniae [5]) was over 8 µg/mL. It also gave an MIC50 (S. mitis group) of 2 µg/mL, an MIC90 (S. mitis group) of 8 µg/mL and an MIC90 (CDC coryneform group G) of over 8 µg/mL. It also gave an MIC50 (H. influenzae [6]) of 2 µg/mL, an MIC90 (H. influenzae [6]) of 4 µg/mL and an MIC50 (Staphylococcus hominis [7]) of 4 µg/mL. For the same compound, the MIC50 [8] was 0.5 µg/mL.

For N[C@@H]1CCCCN(c2c(F)cc3c(=O)c(C(=O)O)cn(C4CC4)c3c2Cl)C1 [BESI], the MIC50 (Streptococcus mitis) was 0.125 µg/mL, the MIC90 (Streptococcus mitis) was 0.125 µg/mL and the “MIC Range” value (Streptococcus mitis) was 0.06 to 0.25 µg/mL. The MIC50 ([1]; All organisms, N 1324) was 0.06 µg/mL, the MIC90 ([1]; All organisms, N 1324) was 0.25 µg/mL and the “MIC Range” value ([1]; All organisms, N 1324) was 0.008 to 8 µg/mL. The MIC50 ([1]; Gram-negative, N 438) was 0.03 µg/mL, the MIC90 ([1]; Gram-negative, N 438) was 0.5 µg/mL and the “MIC Range” value ([1]; Gram-negative, N 438) was 0.008 to 8 µg/mL. The MIC50 ([1]; Gram-positive, N 886) was 0.06 µg/mL, the MIC90 ([1]; Gram-positive, N 886) was 0.25 µg/mL and the “MIC Range” value ([1]; Gram-positive, N 886) was 0.008 to 8 µg/mL. For the same compound, the MIC50 (S. aureus [2]; all phenotypes, N 190) was 0.03 µg/mL, the MIC90 (S. aureus [2]; all phenotypes, N 190) was 0.5 µg/mL and the “MIC Range” value (S. aureus [2]; all phenotypes, N 190) was 0.008 to 8 µg/mL. For the same compound, the MIC50 [3] was 0.25 µg/mL, the “MIC Range” value [3] was 0.015 to 0.25 µg/mL and the MIC50 (S. epidermidis [4]; all phenotypes, N 111) was 0.06 µg/mL. For the same compound, the MIC90 (S. epidermidis [4]; all phenotypes, N 111) was 0.5 µg/mL, the “MIC Range” value (S. epidermidis [4]; all phenotypes, N 111) was 0.03 to 4 µg/mL and the MIC50 (Streptococcus salivarius) was 0.125 µg/mL. The “MIC Range” value (Streptococcus salivarius) was 0.06 to 0.25 µg/mL, the MIC50 (Streptococcus oralis) was 0.125 µg/mL and the MIC90 (Streptococcus oralis) was 0.25 µg/mL. For the same compound, the “MIC Range” value (Streptococcus oralis) was 0.015 to 0.25 µg/mL, the MIC50 (S. pneumoniae [5]) was 0.06 µg/mL and the MIC90 (S. pneumoniae [5]) was 0.125 µg/mL. The “MIC Range” value (S. pneumoniae [5]) was 0.03 to 0.25 µg/mL, the MIC50 (S. mitis group) was 0.125 µg/mL and the MIC90 (S. mitis group) was 0.25 µg/mL. For the same compound, the “MIC Range” value (S. mitis group) was 0.03 to 1 µg/mL, the MIC50 (CDC coryneform group G) was 0.015 µg/mL and the MIC90 (CDC coryneform group G) was 0.125 µg/mL. For the same compound, the “MIC Range” value (CDC coryneform group G) was 0.008 to 2 µg/mL, the MIC50 (H. influenzae [6]) was 0.03 µg/mL and the MIC90 (H. influenzae [6]) was 0.06 µg/mL. The “MIC Range” value (H. influenzae [6]) was 0.008 to 0.5 µg/mL, the MIC50 (Staphylococcus hominis [7]) was 0.06 µg/mL and the “MIC Range” value (Staphylococcus hominis [7]) was 0.03 to 0.5 µg/mL. For the same compound, the MIC50 (Corynebacterium striatum) was 0.015 µg/mL, the “MIC Range” value (Corynebacterium striatum) was 0.015 to 0.25 µg/mL and the MIC50 [8] was 0.125 µg/mL. The “MIC Range” value [8] was 0.06 to 0.5 µg/mL.

COc1c(N2C[C@@H]3CCCN[C@@H]3C2)c(F)cc2c(=O)c(C(=O)O)cn(C3CC3)c12 [Moxifloxacin] gave an MIC ([9]; E. coli Wild type) of 0.06 µg/mL (≈ 0.149 µM), an MIC ([9]; E. coli gyrA D87Y (or S83L)) of 0.5 µg/mL (≈ 1.25 µM) and an MIC ([9]; E. coli gyrA S83L + parC S80R) of 4 µg/mL. For the same compound, the MIC ([9]; E. coli gyrA S83L + parE H445L) was 0.5 µg/mL, the MIC ([9]; E. coli gyrB D426N) was 0.12 µg/mL (≈ 0.299 µM) and the “MIC Range” value (Viridans streptococci) was 0.03 to 4 µg/mL. It also gave an MIC50 (Viridans streptococci; read-out: MIC50) of 0.12 µg/mL (≈ 0.299 µM), an MIC90 ([1]; clinical isolates from Asia) of 2 µg/mL and an MIC90 (Morganella morganii) of over 8 µg/mL. For the same compound, the MIC50 (Moraxella catarrhalis) was 0.03 µg/mL (≈ 0.0747 µM), the MIC90 (Moraxella catarrhalis) was 0.03 µg/mL (≈ 0.0747 µM) and the “MIC Range” value (Moraxella catarrhalis) was 0.015 to 0.12 µg/mL. For the same compound, the MIC50 (Klebsiella oxytoca) was 0.06 µg/mL (≈ 0.149 µM), the MIC90 (Klebsiella oxytoca) was 2 µg/mL (≈ 4.98 µM) and the “MIC Range” value (Klebsiella oxytoca) was 0.03 to 8 µg/mL. The MIC50 (Citrobacter koseri) was 0.03 µg/mL (≈ 0.0747 µM), the “MIC Range” value (S. pneumoniae [10]) was 0.03 to 2 µg/mL and the MIC50 (S. pneumoniae [10]; Streptococcus pneumoniae) was 0.06 µg/mL. It also gave an MIC90 (S. pneumoniae [10]; Streptococcus pneumoniae) of 0.12 µg/mL, an MIC ([11]; S. pneumoniae Wild type) of 0.25 µg/mL (≈ 0.623 µM) and an MIC ([11]; S. pneumoniae gyrA S81F) of 0.5 µg/mL (≈ 1.25 µM). For the same compound, the MIC ([11]; S. pneumoniae parC S79Y) was 0.25 µg/mL (≈ 0.623 µM), the MIC ([11]; S. pneumoniae parC S79Y + gyrA S81F) was 4 µg/mL and the MIC90 (S. aureus [2]; MRSA, S. aureus MRSA-CS, N 9, read-out: MIC90 (due to limited isolates, highest MIC value is given)) was 0.06 µg/mL. The MIC50 (Staphylococcus warneri) was 0.06 µg/mL (≈ 0.149 µM), the MIC90 (Staphylococcus warneri) was 4 µg/mL (≈ 9.96 µM) and the MIC90 (S. epidermidis [4]; MRSE, S. epidermidis MRSE-CR, N 24, read-out: MIC90) was over 8 µg/mL. The MIC90 (S. epidermidis [4]; S. epidermidis MSSE-CR, N 10, read-out: MIC90) was 8 µg/mL, the “MIC Range” value [12] was 0.03 to 1 µg/mL and the MIC50 ([12]; read-out: MIC50) was 0.12 µg/mL (≈ 0.299 µM). The MIC90 ([12]; read-out: MIC90) was 0.12 µg/mL (≈ 0.299 µM), the MIC50 (S. epidermidis [13]) was 0.06 µg/mL and the MIC90 (S. epidermidis [13]) was over 8 µg/mL. For the same compound, the “MIC Range” value (H. influenzae [14]) was 0.008 to 0.03 µg/mL, the MIC50 (H. influenzae [14]; Haemophilus influenzae) was 0.015 µg/mL and the MIC90 (H. influenzae [14]; Haemophilus influenzae) was 0.03 µg/mL. It also gave an MIC ([15]; S. aureus Wild type) of 0.06 µg/mL (≈ 0.149 µM), an MIC ([15]; S. aureus parC S80F (or E84K)) of 0.5 µg/mL (≈ 1.25 µM) and an MIC ([15]; S. aureus parC S80F + gyrA S84L) of 2 µg/mL. For the same compound, the MIC50 (Staphylococcus hominis [16]) was 1 µg/mL (≈ 2.49 µM), the MIC90 (Staphylococcus hominis [16]) was 4 µg/mL (≈ 9.96 µM) and the MIC50 (S. aureus [17]) was 0.06 µg/mL. The MIC50 (Legionella pneumophila) was 0.03 µg/mL (≈ 0.0747 µM), the MIC90 (Legionella pneumophila) was 0.06 µg/mL (≈ 0.149 µM) and the MIC50 [18] was 1 µg/mL (≈ 2.49 µM). The MIC90 [18] was 8 µg/mL (≈ 19.9 µM).
